Results from ChEMBL document CHEMBL4011644, “3-Hydroxy-N'-arylidenepropanehydrazonamides with Halo-Substituted Phenanthrene Scaffolds Cure P. berghei Infected Mice When Administered Perorally” (J Med Chem, 2017).
The source made the active and inactive calls. No cut-off for these calls is given here.

Tests used:
Plasmodium falciparum [1] = assay: Antiplasmodial activity against chloroquine-sensitive asexual blood stages of Plasmodium falciparum 3D7 after 72 hrs by HRP2-based ELISA; format: functional; details: 3D7, 72 h
Plasmodium falciparum [2] = assay: Antiplasmodial activity against multidrug-resistant asexual blood stages of Plasmodium falciparum Dd2 after 72 hrs by HRP2-based ELISA; format: functional; details: Dd2, 72 h
HepG2 = assay: Cytotoxicity against human HepG2 cells by CellTiterGlo assay; format: cell-based
Plasmodium berghei [3] = assay: Antiplasmodial activity against Plasmodium berghei infected in NMRI mouse assessed as reduction in parasitemia at 50 mg/kg, po administered at 4, 24, 48, 72 hrs post infection measured on day 4 post infection by Peter's test relative to control; format: functional; set-up: scale not given: the % may be the effect or the level left
Plasmodium berghei [4] = assay: Antiplasmodial activity against Plasmodium berghei infected in NMRI mouse assessed as mean survival time at 50 mg/kg, po administered at 4, 24, 48, 72 hrs post infection by Peter's test (reference value: 6 to 7 day); format: functional
Plasmodium berghei [5] = assay: Antiplasmodial activity against Plasmodium berghei infected in NMRI mouse assessed as reduction in parasitemia at 30 mg/kg, po administered at 4, 24, 48, 72 hrs post infection measured on day 4 by Peter's test relative to control; format: functional; set-up: scale not given: the % may be the effect or the level left
Plasmodium berghei [6] = assay: Antiplasmodial activity against Plasmodium berghei infected in NMRI mouse assessed as mean survival time at 30 mg/kg, po administered at 4, 24, 48, 72 hrs post infection by Peter's test (reference value: 6 to 7 day); format: functional
Plasmodium berghei [7] = assay: Antiplasmodial activity against Plasmodium berghei infected in NMRI mouse assessed as parasite-free mouse at 30 mg/kg, po administered at 4, 24, 48, 72 hrs post infection measured on day 30 by Peter's test; format: functional, organism-based
Mus musculus = assay: Toxicity in NMRI mouse infected with Plasmodium berghei assessed as overt toxicity at 50 mg/kg, ip administered at 4, 24, 48, 72 hrs post infection; format: organism-based; details: in vivo
Plasmodium berghei [8] = assay: Antiplasmodial activity against Plasmodium berghei infected in NMRI mouse assessed as reduction in parasitemia at 10 mg/kg, po administered at 4, 24, 48, 72 hrs post infection measured on day 4 by Peter's test relative to control; format: functional; set-up: scale not given: the % may be the effect or the level left
Plasmodium berghei [9] = assay: Antiplasmodial activity against Plasmodium berghei infected in NMRI mouse assessed as mean survival time at 10 mg/kg, po administered at 4, 24, 48, 72 hrs post infection measured on day 4 by Peter's test (reference value: 6 to 7 day); format: functional
Plasmodium berghei [10] = assay: Antiplasmodial activity against Plasmodium berghei infected in NMRI mouse assessed as reduction in parasitemia at 3 mg/kg, po administered at 4, 24, 48, 72 hrs post infection measured on day 4 by Peter's test relative to control; format: functional; set-up: scale not given: the % may be the effect or the level left
Plasmodium berghei [11] = assay: Antiplasmodial activity against Plasmodium berghei infected in NMRI mouse assessed as mean survival time at 3 mg/kg, po administered at 4, 24, 48, 72 hrs post infection measured on day 4 by Peter's test (reference value: 6 to 7 day); format: functional
Plasmodium berghei [12] = assay: Antiplasmodial activity against Plasmodium berghei infected in NMRI mouse assessed as parasite free mouse at 3 mg/kg, po administered at 4, 24, 48, 72 hrs post infection measured on day 4 by Peter's test; format: functional, organism-based
[13] = Chemical stability of compound in tween 20/ethanol/phosphate buffer at 1 mg/ml at pH 7.5 assessed as compound remaining after 6 hrs by HPLC analysis; format: physicochemical; details: read-out: Stability
[14] = Drug degradation in Tween 20/ethanol/phosphate buffer at 1 mg/ml at pH 7.5 after 24 hrs by HPLC analysis
[15] = Solubility of compound in phosphate buffer at pH 2.5 after 1 hr by HPLC analysis; format: physicochemical; details: pH 2.5, 1 h
[16] = Solubility of compound in phosphate buffer at pH 7.5 after 1 hr by HPLC analysis; format: physicochemical; details: pH 7.5, 1 h
Plasmodium falciparum [17] = assay: Effect on female gamete formation in transgenic GFP-fused Plasmodium falciparum NF54 mature stage-5 gametocytes at 1 uM after 72 hrs under reduced oxygen tension by Mitotracker Red CMH2XRos staining based confocal microscopic method; format: functional
Plasmodium falciparum [18] = assay: Effect on male gamete formation in transgenic GFP-fused Plasmodium falciparum NF54 mature stage-5 gametocytes at 1 uM after 72 hrs under reduced oxygen tension by Mitotracker Red CMH2XRos staining based confocal microscopic method; format: functional
Plasmodium falciparum [19] = assay: Gametocytocidal activity against transgenic GFP-fused Plasmodium falciparum NF54 […] stage gametocytes after 72 hrs by Mitotracker Red CMH2XRos staining based confocal microscopic method; format: functional; details: NF54, 72 h
Plasmodium falciparum [20] = assay: Gametocytocidal activity against transgenic GFP-fused Plasmodium falciparum NF54 early stage gametocytes after 72 hrs by Mitotracker Red CMH2XRos staining based confocal microscopic method; format: functional; details: NF54, 72 h
Plasmodium berghei [21] = assay: […] activity against GFP-fused Plasmodium berghei liver stage parasites infected in human HepG2-A16-CD81-EGFP cells after 48 hrs by luciferase reporter gene assay; format: functional

SMILES: N/C(CC(O)c1cc2c(F)cc(F)cc2c2cc(C(F)(F)F)ccc12)=N\N=C\c1ccc(F)cc1 (stereo not drawn)
- IC50 (Plasmodium falciparum [1]): 2.3 nM
- IC50 (Plasmodium falciparum [2]): 2.9 nM
- IC50 (HepG2): 27700 nM
- Activity (Plasmodium berghei [3]): 99.9%
- MST (Plasmodium berghei [4]): 22 days
- Activity (Plasmodium berghei [5]): 99.4%
- MST (Plasmodium berghei [6]): 25.7 days
- Activity (Plasmodium berghei [7]): inactive
- Activity (Mus musculus): Non-Toxic
- Activity (Plasmodium berghei [8]): 99.5%
- MST (Plasmodium berghei [9]): 24.7 days
- Activity (Plasmodium berghei [10]): 78%
- MST (Plasmodium berghei [11]): 7 days
- Activity (Plasmodium berghei [12]): inactive
- remaining at 6 h, 1 mg/ml [13]: > 95%
- Drug degradation [14]: 31%
- solubility [15]: Insoluble
- solubility [16]: Insoluble
- Activity (Plasmodium falciparum [17]): inactive
- Activity (Plasmodium falciparum [18]): inactive
- IC50 (Plasmodium falciparum [19]): 66 nM
- IC50 (Plasmodium falciparum [20]): 200 nM
- IC50 (Plasmodium berghei [21]): 6900 nM
